# System: MV-4-11 cells
# Test: Gene expression microarray analysis (Affymetrix PrimeView) and GSEA
# Format: cell-based, human
# Parameters: RFU PODN (11730768_x_at) / Fold change /veh PODN (11730768_x_at) / RFU LINC00158 (11744669_a_at) / Fold change /veh LINC00158 (11744669_a_at) / RFU DUSP10 (11751237_a_at) / Fold change /veh DUSP10 (11751237_a_at) / RFU ID3 (11757404_x_at) / Fold change /veh ID3 (11757404_x_at) / RFU PLEKHG5 (11737974_s_at) / Fold change /veh PLEKHG5 (11737974_s_at) / RFU LRRC4B (11730491_at) / Fold change /veh LRRC4B (11730491_at) / RFU GIMAP4 (11747438_a_at) / Fold change /veh GIMAP4 (11747438_a_at) / RFU KRT8 (11758183_x_at) / Fold change /veh KRT8 (11758183_x_at) / RFU CNN1 (11734310_a_at) / Fold change /veh CNN1 (11734310_a_at) / RFU VPS37D (11726825_at) / Fold change /veh VPS37D (11726825_at) / RFU C10orf10 (11716522_x_at) / Fold change /veh C10orf10 (11716522_x_at) / RFU KIR2DL2 /// KIR2DL4 /// KIR2DL5A /// KIR2DL5B /// KIR2DS1 /// KIR2DS2 /// KIR2DS3 /// KIR2DS4 /// KIR3DL3 /// KIR3DL3 /// KIR3DS1 (11738374_at) / Fold change /veh KIR2DL2 /// KIR2DL4 /// KIR2DL5A /// KIR2DL5B /// KIR2DS1 /// KIR2DS2 /// KIR2DS3 /// KIR2DS4 /// KIR3DL3 /// KIR3DL3 /// KIR3DS1 (11738374_at) / RFU C1QL1 (11718748_at) / Fold change /veh C1QL1 (11718748_at) / RFU TMPRSS4 (11747572_a_at) / Fold change /veh TMPRSS4 (11747572_a_at) / RFU HAMP (11756126_x_at) / Fold change /veh HAMP (11756126_x_at) / RFU RNFT2 (11725882_a_at) / Fold change /veh RNFT2 (11725882_a_at) / RFU NR4A2 (11747474_a_at) / Fold change /veh NR4A2 (11747474_a_at) / RFU ABCC12 (11746883_a_at) / Fold change /veh ABCC12 (11746883_a_at) / RFU TMEM136 (11760407_x_at) / Fold change /veh TMEM136 (11760407_x_at) / RFU CLDN22 /// WWC2 (11732394_at) / Fold change /veh CLDN22 /// WWC2 (11732394_at) / RFU HLA-DPB1 (11760878_x_at) / Fold change /veh HLA-DPB1 (11760878_x_at) / RFU SPINT1 (11716480_a_at) / Fold change /veh SPINT1 (11716480_a_at) / RFU GAP43 (11754022_s_at) / Fold change /veh GAP43 (11754022_s_at) / RFU A4GNT (11735810_at) / Fold change /veh A4GNT (11735810_at) / RFU PRB3 (11715151_x_at) / Fold change /veh PRB3 (11715151_x_at) / RFU TUBB4B (11761932_at) / Fold change /veh TUBB4B (11761932_at) / RFU CAPN14 (11732068_a_at) / Fold change /veh CAPN14 (11732068_a_at) / RFU TMCC2 (11721928_a_at) / Fold change /veh TMCC2 (11721928_a_at) / RFU IRGQ (11745062_a_at) / Fold change /veh IRGQ (11745062_a_at) / RFU FAM174B (11720279_a_at) / Fold change /veh FAM174B (11720279_a_at) / RFU TMPRSS4 (11748680_a_at) / Fold change /veh TMPRSS4 (11748680_a_at) / RFU FAM212B (11763350_a_at) / Fold change /veh FAM212B (11763350_a_at) / RFU PLEKHG5 (11743358_a_at) / Fold change /veh PLEKHG5 (11743358_a_at) / RFU ZSCAN30 (11745921_a_at) / Fold change /veh ZSCAN30 (11745921_a_at) / RFU CMKLR1 (11741424_a_at) / Fold change /veh CMKLR1 (11741424_a_at) / RFU LOC101060620 /// MAPK8IP1 (11723275_at) / Fold change /veh LOC101060620 /// MAPK8IP1 (11723275_at) / RFU SPTSSB (11747773_x_at) / Fold change /veh SPTSSB (11747773_x_at) / RFU PRSS12 (11739890_at) / Fold change /veh PRSS12 (11739890_at) / RFU BIN1 (11741810_x_at) / Fold change /veh BIN1 (11741810_x_at) / RFU WNT11 (11732464_a_at) / Fold change /veh WNT11 (11732464_a_at) / RFU C10orf10 (11716521_a_at) / Fold change /veh C10orf10 (11716521_a_at) / RFU C5orf56 (11738089_at) / Fold change /veh C5orf56 (11738089_at) / RFU CYB561 (11721691_x_at) / Fold change /veh CYB561 (11721691_x_at) / RFU ANKRD19P (11752326_a_at) / Fold change /veh ANKRD19P (11752326_a_at) / RFU OR2T12 /// OR2T33 /// OR2T8 (11738714_s_at) / Fold change /veh OR2T12 /// OR2T33 /// OR2T8 (11738714_s_at) / RFU VCAN (11748164_a_at) / Fold change /veh VCAN (11748164_a_at) / RFU JSRP1 (11732532_at) / Fold change /veh JSRP1 (11732532_at) / RFU KRTAP10-11 (11738290_x_at) / Fold change /veh KRTAP10-11 (11738290_x_at) / RFU MYO3A (11730013_a_at) / Fold change /veh MYO3A (11730013_a_at) / RFU EBF3 (11725865_a_at) / Fold change /veh EBF3 (11725865_a_at) / RFU CAMK2N1 (11719241_x_at) / Fold change /veh CAMK2N1 (11719241_x_at) / RFU C5orf56 (11738088_a_at) / Fold change /veh C5orf56 (11738088_a_at) / RFU OLFML3 (11715873_a_at) / Fold change /veh OLFML3 (11715873_a_at) / RFU LOC100653217 /// NTM (11731650_a_at) / Fold change /veh LOC100653217 /// NTM (11731650_a_at) / RFU MAPK11 (11762145_a_at) / Fold change /veh MAPK11 (11762145_a_at) / RFU FIZ1 (11724087_x_at) / Fold change /veh FIZ1 (11724087_x_at) / RFU OASL (11726364_x_at) / Fold change /veh OASL (11726364_x_at) / RFU SOX15 (11748057_x_at) / Fold change /veh SOX15 (11748057_x_at) / RFU CD79A (11719716_a_at) / Fold change /veh CD79A (11719716_a_at) / RFU HIST1H1D (11736915_at) / Fold change /veh HIST1H1D (11736915_at) / RFU CASKIN2 (11723855_a_at) / Fold change /veh CASKIN2 (11723855_a_at) / RFU LOC730098 (11760151_x_at) / Fold change /veh LOC730098 (11760151_x_at) / RFU OR4N2 (11742367_at) / Fold change /veh OR4N2 (11742367_at) / RFU PRRT2 (11749266_a_at) / Fold change /veh PRRT2 (11749266_a_at) / RFU SNX32 (11753110_a_at) / Fold change /veh SNX32 (11753110_a_at) / RFU CDHR5 (11726645_a_at) / Fold change /veh CDHR5 (11726645_a_at) / RFU RCAN1 (11760418_a_at) / Fold change /veh RCAN1 (11760418_a_at) / RFU FAM167A (11723789_a_at) / Fold change /veh FAM167A (11723789_a_at) / RFU FAM26E (11764081_at) / Fold change /veh FAM26E (11764081_at) / RFU ISYNA1 (11749810_s_at) / Fold change /veh ISYNA1 (11749810_s_at) / RFU ACY1 (11761880_at) / Fold change /veh ACY1 (11761880_at) / RFU 11764098_at / Fold change /veh 11764098_at / RFU SAMD14 (11745864_x_at) / Fold change /veh SAMD14 (11745864_x_at) / RFU NPB (11741838_a_at) / Fold change /veh NPB (11741838_a_at) / RFU TMPRSS6 (11731388_a_at) / Fold change /veh TMPRSS6 (11731388_a_at) / RFU KRTAP10-2 (11738614_at) / Fold change /veh KRTAP10-2 (11738614_at) / RFU ARHGAP8 /// PRR5-ARHGAP8 (11727945_x_at) / Fold change /veh ARHGAP8 /// PRR5-ARHGAP8 (11727945_x_at) / RFU KRTAP5-7 /// NADSYN1 (11734609_at) / Fold change /veh KRTAP5-7 /// NADSYN1 (11734609_at) / RFU RASL12 (11751679_a_at) / Fold change /veh RASL12 (11751679_a_at) / RFU CDKN2B (11736163_a_at) / Fold change /veh CDKN2B (11736163_a_at) / RFU PRF1 (11729649_at) / Fold change /veh PRF1 (11729649_at) / RFU, ZNF638 /// ZNF638-IT1 / Fold change vs veh, ZNF638 /// ZNF638-IT1 / RFU, PANK3 / Fold change vs veh, PANK3 / RFU, SH3YL1 / Fold change vs veh, SH3YL1 / RFU, ZEB2 / Fold change vs veh, ZEB2 / RFU, NRIP1 / Fold change vs veh, NRIP1 / RFU, PTTG1IP / Fold change vs veh, PTTG1IP / RFU, CAPN2 / Fold change vs veh, CAPN2 / RFU, MED14 / Fold change vs veh, MED14 / RFU, SNORA58 / Fold change vs veh, SNORA58 / RFU, C1orf63 / Fold change vs veh, C1orf63 / RFU, LRRFIP1 / Fold change vs veh, LRRFIP1 / RFU, NDUFAF7 / Fold change vs veh, NDUFAF7 / RFU, SLC12A2 / Fold change vs veh, SLC12A2 / RFU, IBTK / Fold change vs veh, IBTK / RFU, ESF1 / Fold change vs veh, ESF1 / Fold change vs veh, TMEM50B / RFU, TAOK1 / Fold change vs veh, TAOK1 / RFU, ACBD3 / Fold change vs veh, ACBD3 / RFU, TMA16 / Fold change vs veh, TMA16 / RFU, RWDD3 / Fold change vs veh, RWDD3 / RFU, BCAT1 / Fold change vs veh, BCAT1 / RFU, EDEM3 / Fold change vs veh, EDEM3 / RFU, TMEM33 / Fold change vs veh, TMEM33 / RFU, WDR75 / Fold change vs veh, WDR75 / RFU, AHCTF1 / Fold change vs veh, AHCTF1 / RFU, TFRC / Fold change vs veh, TFRC / RFU, ZDHHC17 / Fold change vs veh, ZDHHC17 / RFU, NOM1 / Fold change vs veh, NOM1 / RFU, ARL8B / Fold change vs veh, ARL8B / RFU, ZBTB11 / Fold change vs veh, ZBTB11 / RFU, TAMM41 / Fold change vs veh, TAMM41 / RFU, KIAA1704 /// LOC100996395 / Fold change vs veh, KIAA1704 /// LOC100996395 / RFU, ING1 / Fold change vs veh, ING1 / RFU, TRMT61B / Fold change vs veh, TRMT61B / RFU, FUBP3 / Fold change vs veh, FUBP3 / RFU, TP53 / Fold change vs veh, TP53 / RFU, TNKS2 / Fold change vs veh, TNKS2 / RFU, ZFP14 / Fold change vs veh, ZFP14 / RFU, ACTR2 / Fold change vs veh, ACTR2 / RFU, PPP3R1 / Fold change vs veh, PPP3R1 / RFU, PIK3R1 / Fold change vs veh, PIK3R1 / RFU, HNRNPA1 / Fold change vs veh, HNRNPA1 / RFU, RNF170 / Fold change vs veh, RNF170 / RFU, ZNF28 / Fold change vs veh, ZNF28 / RFU, RNGTT / Fold change vs veh, RNGTT / RFU, OGT / Fold change vs veh, OGT / RFU, BRD1 / Fold change vs veh, BRD1 / RFU, MARS / Fold change vs veh, MARS / RFU, ZNF655 / Fold change vs veh, ZNF655 / RFU, FAHD1 / Fold change vs veh, FAHD1 / RFU, BDP1 / Fold change vs veh, BDP1 / RFU, LRRCC1 / Fold change vs veh, LRRCC1 / RFU, ARID1A / Fold change vs veh, ARID1A / RFU, ZNF146 / Fold change vs veh, ZNF146 / RFU, ZNF330 / Fold change vs veh, ZNF330 / RFU, GPN3 / Fold change vs veh, GPN3 / RFU, C9orf123 / Fold change vs veh, C9orf123 / RFU, N4BP2L2 / Fold change vs veh, N4BP2L2 / RFU, ARFIP1 / Fold change vs veh, ARFIP1 / RFU, FAM179B / Fold change vs veh, FAM179B / RFU, BCL10 / Fold change vs veh, BCL10 / RFU, UHRF1BP1L / Fold change vs veh, UHRF1BP1L / RFU, BET1 / Fold change vs veh, BET1 / RFU, CNOT2 / Fold change vs veh, CNOT2 / RFU, ZNF268 / Fold change vs veh, ZNF268 / Fold change vs veh, ZNF507 / RFU, DGCR2 / Fold change vs veh, DGCR2 / RFU, WDSUB1 / Fold change vs veh, WDSUB1 / Fold change vs veh, HSP90B1 /// MIR3652 / RFU, ADSS / Fold change vs veh, ADSS / RFU, GK / Fold change vs veh, GK / RFU, ZNF148 / Fold change vs veh, ZNF148 / RFU, TAF9 / Fold change vs veh, TAF9 / RFU, SLC1A5 / Fold change vs veh, SLC1A5 / RFU, SLMO2 / Fold change vs veh, SLMO2 / RFU, ABCC4 / Fold change vs veh, ABCC4 / RFU, LOC101060439 /// RAP1B / Fold change vs veh, LOC101060439 /// RAP1B / RFU, RFX7 / Fold change vs veh, RFX7 / RFU, GTPBP10 / Fold change vs veh, GTPBP10 / RFU, CNEP1R1 / Fold change vs veh, CNEP1R1 / RFU, BIVM-ERCC5 /// ERCC5 / Fold change vs veh, BIVM-ERCC5 /// ERCC5 / RFU, ILF3 / Fold change vs veh, ILF3 / RFU 11762660_at / Fold change /veh 11762660_at / RFU VCAN (11757783_s_at) / Fold change /veh VCAN (11757783_s_at) / RFU DDX43 (11728927_at) / Fold change /veh DDX43 (11728927_at) / RFU KRT8 (11758188_x_at) / Fold change /veh KRT8 (11758188_x_at) / RFU NKD1 (11759106_at) / Fold change /veh NKD1 (11759106_at) / RFU SRD5A1 (11742802_a_at) / Fold change /veh SRD5A1 (11742802_a_at) / RFU TPSAB1 /// TPSB2 (11721975_s_at) / Fold change /veh TPSAB1 /// TPSB2 (11721975_s_at) / RFU GSTM3 (11746129_a_at) / Fold change /veh GSTM3 (11746129_a_at) / RFU IL23R (11737362_x_at) / Fold change /veh IL23R (11737362_x_at) / RFU TMEM51 (11727254_a_at) / Fold change /veh TMEM51 (11727254_a_at) / RFU PIWIL2 (11732686_x_at) / Fold change /veh PIWIL2 (11732686_x_at) / RFU ORM1 (11744905_x_at) / Fold change /veh ORM1 (11744905_x_at) / RFU CCDC152 (11743942_at) / Fold change /veh CCDC152 (11743942_at) / RFU ECM1 (11717891_a_at) / Fold change /veh ECM1 (11717891_a_at) / RFU IL23R (11748794_a_at) / Fold change /veh IL23R (11748794_a_at) / RFU TNFAIP8L3 (11732012_x_at) / Fold change /veh TNFAIP8L3 (11732012_x_at) / RFU MBOAT4 (11741988_at) / Fold change /veh MBOAT4 (11741988_at) / RFU 11764193_at / Fold change /veh 11764193_at / RFU TMEM53 (11763286_at) / Fold change /veh TMEM53 (11763286_at) / RFU MAGEB2 (11727129_at) / Fold change /veh MAGEB2 (11727129_at) / RFU TMEM200A (11744735_a_at) / Fold change /veh TMEM200A (11744735_a_at) / RFU CCDC152 (11751479_a_at) / Fold change /veh CCDC152 (11751479_a_at) / RFU FAM211A (11726209_a_at) / Fold change /veh FAM211A (11726209_a_at) / RFU RGS16 (11746705_a_at) / Fold change /veh RGS16 (11746705_a_at) / RFU VCAN (11755009_s_at) / Fold change /veh VCAN (11755009_s_at) / RFU RHOB (11743442_s_at) / Fold change /veh RHOB (11743442_s_at) / RFU RGS16 (11720943_a_at) / Fold change /veh RGS16 (11720943_a_at) / RFU RGS16 (11720944_at) / Fold change /veh RGS16 (11720944_at) / RFU, VPS4B / Fold change vs veh, VPS4B / RFU, CREB1 / Fold change vs veh, CREB1 / RFU, DNAJC13 / Fold change vs veh, DNAJC13 / RFU, GNAQ / Fold change vs veh, GNAQ / RFU, CDK5R1 / Fold change vs veh, CDK5R1 / RFU, ZRANB3 / Fold change vs veh, ZRANB3 / RFU, CUL4A / Fold change vs veh, CUL4A / RFU, CCNY / Fold change vs veh, CCNY / RFU, UFL1 / Fold change vs veh, UFL1 / RFU, COG3 / Fold change vs veh, COG3 / RFU, DIAPH2 / Fold change vs veh, DIAPH2 / RFU, SKA2 / Fold change vs veh, SKA2 / RFU, AFF3 / Fold change vs veh, AFF3 / RFU, LMF1 / Fold change vs veh, LMF1 / RFU, IPO11 / Fold change vs veh, IPO11 / RFU, DFFB / Fold change vs veh, DFFB / RFU, FOXP1 / Fold change vs veh, FOXP1 / RFU, CARD8 / Fold change vs veh, CARD8 / RFU, STRN3 / Fold change vs veh, STRN3 / RFU, ADK / Fold change vs veh, ADK / RFU, RASSF2 / Fold change vs veh, RASSF2 / RFU, WIPF1 / Fold change vs veh, WIPF1 / RFU, LARP1B / Fold change vs veh, LARP1B / RFU, RASA1 / Fold change vs veh, RASA1 / RFU, RB1 / Fold change vs veh, RB1 / RFU, PPFIA1 / Fold change vs veh, PPFIA1 / RFU, MAT2A / Fold change vs veh, MAT2A / RFU, CCT5 / Fold change vs veh, CCT5 / RFU, WDR92 / Fold change vs veh, WDR92 / RFU, CUX1 / Fold change vs veh, CUX1 / RFU, TTC7A / Fold change vs veh, TTC7A / RFU, TMEM135 / Fold change vs veh, TMEM135 / RFU, DEPTOR / Fold change vs veh, DEPTOR / RFU, CPM / Fold change vs veh, CPM / RFU, DNAJB6 / Fold change vs veh, DNAJB6 / RFU, CACNA2D3 / Fold change vs veh, CACNA2D3 / RFU, DTX4 / Fold change vs veh, DTX4 / RFU, TFCP2 / Fold change vs veh, TFCP2 / RFU, GMCL1 /// GMCL1P1 / Fold change vs veh, GMCL1 /// GMCL1P1 / RFU, AEBP2 / Fold change vs veh, AEBP2 / RFU, SNHG1 /// SNORD22 /// SNORD25 /// SNORD26 /// SNORD27 /// SNORD28 /// SNORD29 /// SNORD31 / Fold change vs veh, SNHG1 /// SNORD22 /// SNORD25 /// SNORD26 /// SNORD27 /// SNORD28 /// SNORD29 /// SNORD31 / Fold change (Aza/veh), C12orf56 (ProbeSet 11735607_a_at) / Fold change (ACY-1035/veh), C12orf56 (ProbeSet 11735607_a_at) / Fold change (Aza/veh), FGFR1OP (ProbeSet 11751329_s_at) / Fold change (ACY-1035/veh), FGFR1OP (ProbeSet 11751329_s_at) / Fold change (Aza/veh), VPS36 (ProbeSet 11739960_a_at) / Fold change (ACY-1035/veh), VPS36 (ProbeSet 11739960_a_at) / RFU SYPL1 (11715823_x_at) / Fold change /veh SYPL1 (11715823_x_at) / RFU IGFBP7 (11715501_s_at) / Fold change /veh IGFBP7 (11715501_s_at) / RFU REEP3 (11722064_at) / Fold change /veh REEP3 (11722064_at) / RFU IGLL1 (11728026_x_at) / Fold change /veh IGLL1 (11728026_x_at): dose or concentration left out as unconfirmed
# Conditions: ProbeSet 11725217_a_at; LIST B
compound,measurement,value
Nc1ncn([C@@H]2O[C@H](CO)[C@@H](O)[C@H]2O)c(=O)n1 [azacitidine],"Fold change vs veh, WDSUB1",0.86
